In patent publication US8841277B2, “Methods for treating non-small cell lung cancer using 5-azacytidine” (Celgene Corporation, priority 2009, dated 2014):
“Also recorded” adds a separate entry of the source.

How the values were obtained:
A549 cells = test: Gene expression microarray analysis, A549; assay type: cell-based, human; details: 48 hours; for Downregulated Genes: AZA-Specific / DAC-Specific Genes (number) / Upregulated Genes: AZA-Specific / DAC-Specific Genes (number) / Downregulated Genes: Genes in Common (number) / Upregulated Genes: Genes in Common (number) / Regulation of genes in the Response to DNA Damage Stimulus/DNA Repair biogroup: A549; for Downregulated Genes: Genes in Common (number) / Upregulated Genes: Genes in Common (number): regulated by both AZA and DAC;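 on Downregulated Genes: AZA-Specific / DAC-Specific Genes (number): drug dose range 0.3 to 3 µM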;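 on Downregulated Genes: Genes in Common (number): drug dose range 0.3 to 3 µM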;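 on Upregulated Genes: AZA-Specific / DAC-Specific Genes (number): drug dose range 0.3 to 3 µM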;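 on Upregulated Genes: Genes in Common (number): drug dose range 0.3 to 3 µM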
Method: Cells were lysed using the TRIzol reagent (Life Technologies Corporation) and total RNA was isolated using miRNeasy (Qiagen). Double-stranded cDNA and biotin-labeled cRNA were synthesized using 100 ng of total RNA using Ambion's MessageAmp Premier RNA Amplification Kit (ABI; Foster City, Calif.). Biotin-labeled cRNA, at 10 μg, was fragmented and hybridized to each human U133A 2.0 genechip (Affymetrix; Santa Clara, Calif.). The GC-RMA algorithm was used for normalization and all analyses were done using GeneSpring 7.3 (Agilent; Santa Clara, Calif.). Averaged signals from biological duplicate samples were used to determine fold change (Treated vs. Untreated), with an absolute fold change of ≧1.7 defining regulated genes. NextBio was used to identify regulated Gene Ontology biogroups from lists of regulated genes. The top 15 biogroups are those with the lowest p-values calculated within NextBio.
The number of genes modulated in common between the two drugs was low.
Functional groupings of the modulated genes were determined using Gene Ontology classifications in Nextbio (http://www.nextbio.com/).

DNMT1 [1] = test: DNMT1 protein depletion, A549; assay type: cell-based; details: for DNMT1 protein levels: dose range
Method: (§1) For western analyses of protein levels, cells were washed with PBS and lysed with RIPA buffer (Cell Signaling Technology, Inc.; Danvers, Mass.) containing 350 mM NaCl and 0.1% SDS. Cell lysates were sonicated with two 5-second bursts under low amplitude (20%) using the Digital Sonic Dismembrator (Thermo Fisher Scientific, Inc.; Waltham, Mass.). Proteins were separated on 4-12% Bis-Tris NuPAGE gels (Life Technologies Corporation) and transferred to nitrocellulose membranes. DNMT1, phos-Histone-H2AX(Ser139), total Histone-H2AX, cleaved-PARP, p21, p53, and alpha-tubulin were detected using the Li-Cor Odyssey imaging system (Li-Cor Biotechnology; Lincoln, Nebr.), following incubation with the appropriate primary and secondary antibodies. The phos-Histone-H2AX(Ser139), cleaved-PARP, and p21 antibodies were from Cell Signaling Technology, Inc. The p53 and total Histone-H2AX (C-20) antibodies were from Santa Cruz Biotechnology, Inc. (Santa Cruz, Calif.). The alpha-tubulin and DNMT1 antibodies were purchased from EMD Chemicals, Inc. (Gibbstown, N.J.) and Abcam, Inc. (Cambridge, Mass.), respectively. The goat anti-Rabbit IRDye 680, goat anti-Mouse IRDye 800CW, and donkey anti-Goat IRDye 800CW secondary antibodies were from Li-Cor Biotechnology.
(§2) Reduced DNMT1 levels were detected in these cell lines as early as 4 hours after drug treatment (FIG. 17).

H460 cells = test: Apoptosis (AnnexinV-FITC/7-AAD), H460; assay type: cell-based; details: 0.3-10 μM
Excerpt: (§3) For cell cycle distribution, cells were stained with the NIM-DAPI reagent (Beckman Coulter, Inc.; Fullerton, Calif.). For measurement of early- and late-apoptotic cell populations, cells were stained with AnnexinV-FITC and 7-AAD reagents (Beckman Coulter, Inc.). Samples were processed according to manufacturer's instructions and analyzed on a Cell Lab Quanta MPL flow cytometer (Beckman Coulter, Inc.). […] Data were also collected for untreated cells as control.

DNMT1 [2] = test: DNMT1 protein depletion, H23; assay type: cell-based; details: H23 cell line
Method: as §2

H1975 cells = test: Cell cycle distribution (NIM-DAPI), H1975; assay type: cell-based; details: 72-hour treatment, 0.3-10 μM
Excerpt: These studies examined the cell cycle distribution of NSCLC cells treated with AZA or DAC using NIM-DAPI analysis.
as §3

H23 cells = test: Cell viability (CyQuant assay), H23; assay type: cell-based; details: 72 hours; for HillSlope / LogIC50 / IC50: H23 viability, best-fit value; for EC50 / IC50: Homo sapiens, NCI-H23; for EC50: H23, read-out: EC50 of effect on viability
Method: (§4) Certain NSCLC cell lines (H460, H1299, A549, and H1975) were purchased from American Type Culture Collection (ATCC; Manassas, Va.). The H23NSCLC cell line was obtained from the National Cancer Institute (NCI; Bethesda, Md.). Cell lines were cultured in their respective media, as recommended by ATCC and NCI. AZA was manufactured at Aptuit (Greenwich, Conn.) for Celgene (Summit, N.J.), while DAC was purchased from Sigma-Aldrich (St. Louis, Mo.). In all experiments, cells were seeded 24 hours before drug treatment and incubated at 37° C./5% CO2, For cell viability assays, H460, H1299, A549, H23, and H1975 cells were seeded in triplicate at 1×10^3, 1×10^3, 1×10^3, 4×10^3, and 4×10^3 cells per well, respectively, in 96-well plates, using 200 μL of medium per well. Fresh drug was added every 24 hours by replacing medium with drug-containing medium. For all other assays, cells were seeded at 0.6-1.2×10^5 cells per well, in 6-well plates, using 4 mL of medium per well, with fresh drug added directly to the medium every 24 hours.
(§5) Cell viability was assessed using the CyQuant assay (Life Technologies Corporation; Carlsbad, Calif.). Fluorescence was measured with a spectrophotometer (Molecular Devices; Sunnyvale, Calif.), and EC50 values were calculated in Prism® version 5.01 (GraphPad Software, Inc.; La Jolla, Calif.), using results from three independent experiments.
(§6) The six data sets represent calculations of EC50 values from raw data using Prism®. The standard deviation among the three independent experiments was determined at each drug concentration. For some of the cell lines, Prism® was not able to calculate the EC50 for DAC. For those curves that an EC50 was available, the SE (Std. Error) was acceptable (SE of the logEC50 should be less than 0.5), meaning that the standard errors were not too large. The 95% Confidence Intervals for the EC50 were considered as a measure of error.

DNMT1 [3] = test: DNMT1 protein depletion, H460; assay type: cell-based; details: for DNMT1 protein levels: dose range
Method: as §1, §2

H1299 cells = test: Cell viability (CyQuant assay), H1299; assay type: cell-based; details: 72 hours; for HillSlope / LogIC50 / IC50: H1299 viability, best-fit value; for EC50 / IC50: Homo sapiens, NCI-H1299; for EC50: H1299, read-out: EC50 of effect on viability
Method: as §4, §5, §6

[4] = administered at 15 mg/m^2; cited from earlier work
NSCLC cell types = test: Apoptosis (AnnexinV-FITC/7-AAD), summary; assay type: cell-based; details: summary of studies
Excerpt: as §3

[5] = 0.3-10 μM, 24 h and 48 h (Example 5)

Compound	Downregulated Genes: AZA-Specific / DAC-Specific Genes (number) (A549 cells; 0.3 μM)	Upregulated Genes: AZA-Specific / DAC-Specific Genes (number) (A549 cells; 0.3 μM, fold change ≧1.7)	Downregulated Genes: Genes in Common (number) (A549 cells; 0.3 μM)	Upregulated Genes: Genes in Common (number) (A549 cells; 0.3 μM)	Downregulated Genes: AZA-Specific / DAC-Specific Genes (number) (A549 cells; 1.0 μM)	Upregulated Genes: AZA-Specific / DAC-Specific Genes (number) (A549 cells; 1.0 μM)	Downregulated Genes: Genes in Common (number) (A549 cells; 1.0 μM)	Upregulated Genes: Genes in Common (number) (A549 cells; 1.0 μM)	Downregulated Genes: AZA-Specific / DAC-Specific Genes (number) (A549 cells; 3.0 μM)	Upregulated Genes: AZA-Specific / DAC-Specific Genes (number) (A549 cells; 3.0 μM)	Downregulated Genes: Genes in Common (number) (A549 cells; 3.0 μM)	Upregulated Genes: Genes in Common (number) (A549 cells; 3.0 μM)	Regulation of genes in the Response to DNA Damage Stimulus/DNA Repair biogroup (A549 cells)	DNMT1 protein levels (DNMT1 [1]; 20 hours)	Early- and late-apoptotic cell populations (AnnexinV/7-AAD) (H460 cells; 30-hour treatment)	Early- and late-apoptotic cell populations (AnnexinV/7-AAD) (H460 cells; 48-hour treatment)	DNMT1 depletion (DNMT1 [2])	Cell cycle distribution (NIM DAPI) (H1975 cells)	HillSlope (H23 cells)	LogIC50 (H23 cells)	other results
Nc1ncn([C@H]2C[C@H](O)[C@@H](CO)O2)c(=O)n1 [DAC, 5-aza-2′-deoxycytidine]	55	139	11	17	111	261	30	45	239	413	55	66	general downregulation	significantly reduced	very slight increase in these cell populations; also recorded: very slight increase in this cell population	some increase in this cell population	time- and dose-dependent depletion	slight increases in G2/M and Sub-G1	−0.3790	1.268	Fold more genes modulated than AZA (A549 cells; A549 (stated for A549 and H1299 together), 0.3 μM): 4- to 20 fold; DNMT1 depletion (DNMT1 [1]; [5]): able to cause DNMT1 depletion; Relative potency in reducing DNMT1 levels (DNMT1 [1]; 20 hours): more potent than AZA; Concentration of maximal reduction of DNMT1 levels (DNMT1 [1]; 20 hours, lowest concentration tested): 0.05 µM; EC50 (H23 cells): 18.5 µM; IC50 (H23 cells): 18.5 µM; DNMT1 depletion (DNMT1 [3]; [5]): able to cause DNMT1 depletion; Relative potency in reducing DNMT1 levels (DNMT1 [3]; 20 hours): equipotent; DNMT1 protein levels (DNMT1 [3]; 20 hours): significantly reduced; HillSlope (H1299 cells): −0.4536; LogIC50 (H1299 cells): 0.7153; EC50 (H1299 cells): 5.2 µM; IC50 (H1299 cells): 5.19 µM; Plasma levels [4]: 0.5 µM; Early- and late-apoptotic cell populations (AnnexinV/7-AAD) (NSCLC cell types): very slight increase in these cell populations
Nc1ncn([C@@H]2O[C@H](CO)[C@@H](O)[C@H]2O)c(=O)n1 [AZA, 4-amino-1-β-D-ribofuranosyl-1,3,5-triazin-2(1H)-one]	14	16	11	17	273	279	30	45	560	636	55	66	general upregulation	significantly reduced	dramatic increase in early-apoptotic (AnnexinV^+7-AAD^−) and late-apoptotic (AnnexinV^+7-AAD^−) cells	dramatic increase in early-apoptotic (AnnexinV^+7-AAD^−) cells	time- and dose-dependent depletion	decrease of cells in G0/G1 and accumulation of cells in G2/M and Sub-G1	−1.054	1.005	EC50 (H23 cells): 10.1 µM; IC50 (H23 cells): 10.1 µM; DNMT1 protein levels (DNMT1 [3]; 20 hours): significantly reduced; HillSlope (H1299 cells): −1.138; LogIC50 (H1299 cells): 0.7095; EC50 (H1299 cells): 5.1 µM; IC50 (H1299 cells): 5.12 µM; Early- and late-apoptotic cell populations (AnnexinV/7-AAD) (NSCLC cell types): dramatic increase in early-apoptotic (AnnexinV+ 7-AAD−) and late-apoptotic (AnnexinV+ 7-AAD+) cells
